Assay results published in US7879870B2, “Treatment of inflammatory and ulcerative diseases of the bowel with opioid antagonists” (priority 2006, dated 2011).
Entries after “also recorded” stand apart in the source; their conditions may differ. Counter-ions that a name gives are not always drawn.

What was measured:
[1] = system: patients with active Crohn's disease; experiment: Open-labeled pilot trial of LDN: safety and toxicity (adverse events, body weight); assay type: in vivo, human
Procedure: (§1) Eligibility was assessed by telephone, and potential candidates were scheduled for a screening visit. At the screening visit, patients were subjected to a history and physical examination and laboratory testing (chemistry panel, complete blood count [“CBC”], urinalysis, and erythrocyte sedimentation rate [“ESR”]). Patients were dispensed a seven-day diary to record symptoms of frequency of diarrhea, abdominal pain, and general well-being. Within fourteen days, patients returned for assessment and calculation of the CDAI score. Qualifying subjects were dispensed medication and given a new diary in order to calculate the subsequent month's CDAI score at the conclusion of this visit (baseline). Patients returned after two weeks for an interim visit to evaluate side effects and perform a CBC. Follow-up visits were scheduled for weeks 4, 8, 12, and 16.
Nonhematologic and hematologic toxicity were determined by the WHO criteria. See, Oken, et al., “Toxicity and response criteria of the Eastern Cooperative Oncology Group,” Am. J. Clin. Oncol. 5(6), 649-55 (1982).

[2] = system: patients with active Crohn's disease; experiment: Open-labeled pilot trial of LDN: quality of life surveys (IBDQ, SF-36 Health Survey); assay type: in vivo, human
Procedure: as §1
(§2) Quality assurance of packaging and purity were confirmed an analytical research laboratory. Patients were treated with LDN orally each evening for three months. A monthly supply of medication was dispensed to patients. On the first visit, an additional ten-day supply of LDN was provided in the event of an appointment delay. Subjects were required to bring the vials to each appointment for counting and drug accountability; extra capsules were returned on the day of the visit and another month's supply dispensed.
To assess quality of life, patients completed two standardized quality of life surveys, the Inflammatory Bowel Disease Questionnaire (“IBDQ”) and SF-36 Health Survey. See, Irvine, et al., “Quality of life: a valid and reliable measure of therapeutic efficacy in the treatment of inflammatory bowel disease. Canadian Crohn's Relapse Prevention Trial Study Group,” Gastroenterology 106(2), 287-96 (1994); Brazier, et al., “Validating the SF-36 health survey questionnaire: new outcome measure for primary care,” BMJ305(6846), 160-04 (1992).
(§3) An intent-to-treat analysis was performed in which the available data from all evaluable patients were included in the statistical analysis. The parameters of measurement (CDAI scores, laboratory values, and quality of life surveys) were analyzed by a biostatistician comparing baseline values to those obtained monthly and four weeks post-therapy. A longitudinal data analysis based upon the linear mixed-effects model was applied using PROC MIXED program (available from SAS Institute Inc., Cary, N.C.). The Bonferroni statistical method was used to adjust significance where analysis including multiple comparisons to the baseline were made. P-values for binary outcomes response and remission were calculated using the exact test for binomial proportions.

human subjects = experiment: Double-blinded placebo-controlled Phase II clinical trial, adverse events; assay type: in vivo; settings: as of the date of application
[3] = system: patients with active Crohn's disease; experiment: Open-labeled pilot trial of LDN in active Crohn's disease: CDAI score, response, remission, fistulas; assay type: in vivo, human
From the text: In the following detailed example, low dose naltrexone, an opioid antagonist, is shown to be a safe and effective treatment for Crohn's disease. In a human clinical experiment, eligible patients were both male and female, at least eighteen years of age, and with the confirmed diagnosis of Crohn's disease by either endocopic or radiographic procedures. Patients had moderate to severely active disease as defined by a Crohn's Disease Activity Index (CDAI score) of >220 and <450. See, Best, et al., “Development of a Crohn's disease activity index. National Cooperative Crohn's Disease Study,” Gastroenterology 70, 439-44 (1976). Patients taking stable doses of aminosalicylates, immunomodulators, corticosteroids, or antibiotics were permitted to enter the study, and they were continued at the same dosage throughout the trial. Women of childbearing age were permitted to enroll and, if not surgically sterile, were required to use adequate contraception (defined as oral or depot contraceptive, IUD, or barrier plus spermicide) for the duration of the study. These women were required to continue adequate contraception for three months after the completion of the study. Exclusion criteria included women who were pregnant or breastfeeding, subjects with an ileostomy, colostomy, ileorectal anastomosis, or short bowel syndrome from surgery, and patients with abnormal liver function tests. Subjects taking tacrolimus, cyclosporine, mycophenolate, or infliximab within eight weeks of enrollment were excluded.
as §1
as §2, with “dispensed. […]” for “dispensed.”
as §3

[4] = one month (week 4) of LDN 4.5 mg/day
[5] = week 16, four weeks after discontinuation of LDN

## O=C1CC[C@@]2(O)[C@H]3Cc4ccc(O)c5c4[C@@]2(CCN3CC2CC2)[C@H]1O5 [LDN, Naltrexone hydrochloride]
[1]; 17 patients enrolled
  Sleep disturbances, number of patients: 7 patients
  Subjects who changed timing of LDN from evening to morning due to insomnia: Five
  Unusual dreams, number of patients reporting: one
[1]; in vivo
  Dose reduction for sleep disturbances: In no instance was a dose reduction necessary
[1]; pilot study, 4.5 mg daily
  Safety profile: infrequent and minor side effects and no known suppression of immunity or increased risk of secondary infections
[1]; screening visit through week 16
  Body weight: no significant change in body weight
[2]; 4 and 8 weeks of LDN
  SF-36 physical function, greater than baseline: 23%
[2]; on LDN therapy
  Quality of life by both surveys (IBDQ and SF-36) compared to baseline: significant improvement; also recorded: improved the quality of life
[2]; week 8 of LDN
  SF-36 health perception, greater than baseline: 33%
[2]; week 12 of LDN
  SF-36 health perception, greater than baseline: 49%
[2]; weeks 4, 8 and 12, only statistically different at week 8
  SF-36 social function, greater than baseline: 70%
[2]; weeks 4, 8 and 12 of LDN
  SF-36 bodily pain, improvement: 61-65%
  SF-36 emotional health versus baseline: comparable to baseline values
  SF-36 physical role scores, improvement: 5- to 8 fold
  SF-36 role-emotional versus baseline: comparable to baseline values
[2]; weeks 4, 8 and 12 on LDN and one month after completion
  IBDQ survey, quality of life compared to baseline: significant improvement in quality of life
[2]; weeks 8 and 12 of LDN
  SF-36 energy scores, greater than at initiation of therapy: at least 2 fold
Human subjects
  Serious adverse events: has not revealed any serious adverse events
[3]; LDN therapy, not previously responded to infliximab, hydrochloride
  Fistulas in the two subjects with fistulas: closure of the fistulas
[3]; at some point during LDN treatment
  Enrolled patients who achieved remission (fraction in words): Two-thirds
[3]; at some point during the 16-week trial
  Patients who achieved a remission: 67%
[3]; four weeks after completing therapy, hydrochloride
  CDAI scores versus baseline (in words): remained lower than baseline; also recorded: continued improvement in CDAI scores
[3]; on therapy, 4.5 mg/day, baseline mean CDAI 356±27
  CDAI scores with LDN versus baseline (in words): decreased significantly
[3]; [4]
  Patients in remission (CDAI score of 150 points or less): 29%
  Patients with response to therapy (decrease in CDAI score by 70 points): 76%
[3]; week 4 of LDN 4.5 mg/day by mouth each evening, 17 patients
  Mean CDAI score, decrease from baseline: 41%
[3]; week 8 of LDN
  Patients in remission (CDAI score of 150 points or less): 53%
  Patients with response to therapy (decrease in CDAI score by 70 points): 88%
[3]; week 8 of LDN 4.5 mg/day
  Mean CDAI score, decrease from baseline: 55%
[3]; week 12 of LDN
  Patients in remission (CDAI score of 150 points or less): 47%
  Patients with response to therapy (decrease in CDAI score by 70 points): 88%
[3]; week 12 of LDN 4.5 mg/day
  Mean CDAI score, decrease from baseline: 49%
[3]; [5]
  Mean CDAI score, less than baseline: 45%
  Patients in remission (CDAI score of 150 points or less): 33%
  Patients with response to therapy (decrease in CDAI score by 70 points): 73%
